This note sets out measurements from PubChem BioAssay (NCI).

Some test systems named below: CCRF-CEM leukemia; HCT-15 colon; HL-60(TB) leukemia; M14 melanoma; OVCAR-4 ovarian; OVCAR-5 ovarian; SK-MEL-2 melanoma; SK-MEL-5 melanoma; SW-620 colon; UACC-257 melanoma.
Holding throughout (experiment): NCI-60 cell line screen, 48 h

Where “and” joins values, the source holds several entries; their conditions need not be identical. Equal entries are not always repeated.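 Grown in 96-well plates, cells were treated for 48 hours with each compound at five concentrations. Insufficient inhibition: endpoint recorded as highest concentration tested. Here, GI50 denotes the concentration required for 50% inhibition of growth. TGI: concentration producing complete growth inhibition.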

As to `CCCCCCN(CCCCCC)C(=N)c1ccnc2ccccc12`, the GI50 in the test with CCRF-CEM leukemia was 3.17 µM; with HCT-15 colon, 3.82 µM; with HL-60(TB) leukemia it was 2.93 µM; in the test on M14 melanoma it was 1.89 µM; in the test on OVCAR-4 ovarian, 5.98 µM; with OVCAR-5 ovarian, 9.64 µM. Also, the GI50 was 3.66 µM in the test with SK-MEL-2 melanoma, 1.96 µM in the test on SK-MEL-5 melanoma, 3.27 µM with SW-620 colon and 2.37 µM in the test with UACC-257 melanoma. The TGI in the test on CCRF-CEM leukemia worked out at 18.4 µM; with HCT-15 colon, 16.6 µM; in the test on HL-60(TB) leukemia, 16.8 µM; with M14 melanoma, 4.56 µM; in the test with OVCAR-4 ovarian, 19.6 µM; with OVCAR-5 ovarian it was 21.7 µM. Moreover, the TGI is 12.2 µM with SK-MEL-2 melanoma, 3.45 µM in the test on SK-MEL-5 melanoma, 17.8 µM with SW-620 colon and 5.62 µM in the test with UACC-257 melanoma.
As to `COc1cccc(-c2nn(-c3ccccc3)cc2-c2ccnc(NCCNS(=O)(=O)c3ccc(C(F)(F)F)cc3)c2)c1`, the GI50 was 2.34 µM with CCRF-CEM leukemia; 3.04 µM with HCT-15 colon; 1.97 µM in the test on HL-60(TB) leukemia; 3.8 µM in the test on M14 melanoma; 2.94 µM in the test with OVCAR-4 ovarian; 4.98 µM in the test on OVCAR-5 ovarian. Also, the GI50 was 2.42 µM with SK-MEL-2 melanoma, 1.72 µM with SK-MEL-5 melanoma, 4.16 µM with SW-620 colon and 3.14 µM in the test with UACC-257 melanoma. Also, the TGI with CCRF-CEM leukemia was more than 100 µM; in the test with HCT-15 colon, more than 100 µM; in the test on HL-60(TB) leukemia, 5.63 µM; in the test on M14 melanoma, more than 100 µM; with OVCAR-4 ovarian it was more than 100 µM; with OVCAR-5 ovarian it was more than 100 µM. Further, the TGI in the test with SK-MEL-2 melanoma is 6.47 µM; with SK-MEL-5 melanoma, 3.11 µM; in the test with SW-620 colon, more than 100 µM; in the test with UACC-257 melanoma it was 15 µM.
`COc1ccc2cc(C(=O)c3ccccc3C(=O)O)ccc2c1`: the TGI in the test on CCRF-CEM leukemia, with HCT-15 colon, in the test on HL-60(TB) leukemia, with M14 melanoma, in the test with OVCAR-4 ovarian and with OVCAR-5 ovarian was more than 100 µM in each case. Moreover, the TGI in the test with SK-MEL-2 melanoma, in the test with SK-MEL-5 melanoma, in the test on SW-620 colon and in the test on UACC-257 melanoma was more than 100 µM throughout.
On to `O=c1c(O)c(-c2ccc(O)c(O)c2)oc2cc(O)ccc12`, for which the TGI was more than 71.1 µM with CCRF-CEM leukemia; 98.4 µM in the test with HCT-15 colon; more than 84.1 µM in the test with HL-60(TB) leukemia; 44 µM with M14 melanoma; more than 100 µM with OVCAR-4 ovarian; 42.1 µM with OVCAR-5 ovarian. Also, the TGI in the test with SK-MEL-2 melanoma is 23.2 µM; in the test on SK-MEL-5 melanoma, 27.4 µM; with SW-620 colon it was 60.1 µM; in the test with UACC-257 melanoma it was more than 67.7 µM.
As for `COc1ccc(C(=S)c2cc(OC)c(OC)c(OC)c2)cc1OC(=O)CCl`, the GI50 is less than 0.0167 µM in the test with CCRF-CEM leukemia; less than 0.01 µM with HCT-15 colon; less than 0.0129 µM with HL-60(TB) leukemia; less than 0.0125 µM with M14 melanoma; 0.073 µM in the test on OVCAR-4 ovarian; 3.32 µM in the test with OVCAR-5 ovarian. Further, the GI50 in the test with SK-MEL-2 melanoma is 33.1 µM; with SK-MEL-5 melanoma, 0.0141 µM; in the test with SW-620 colon, less than 0.0146 µM; with UACC-257 melanoma it was more than 100 µM. Also, the TGI with CCRF-CEM leukemia was more than 100 µM; with HCT-15 colon, more than 100 µM; with HL-60(TB) leukemia it was less than 0.0218 µM; in the test with M14 melanoma, more than 49.6 µM; in the test on OVCAR-4 ovarian, more than 100 µM; in the test with OVCAR-5 ovarian, more than 100 µM. The TGI in the test with SK-MEL-2 melanoma is more than 100 µM; with SK-MEL-5 melanoma, 0.0616 µM; with SW-620 colon it was more than 100 µM; with UACC-257 melanoma, more than 100 µM.
Consider `O=C(OC(C(=O)O)C(OC(=O)c1ccccc1)C(=O)O)c1ccccc1` (configuration not stated) (tested in a mixture with another compound), for which the TGI with CCRF-CEM leukemia is more than 100 µM; with HCT-15 colon, more than 100 µM; in the test with HL-60(TB) leukemia, more than 37.8 µM; in the test on M14 melanoma, more than 100 µM; in the test on OVCAR-4 ovarian, more than 100 µM; in the test on OVCAR-5 ovarian, more than 100 µM. Moreover, the TGI with SK-MEL-2 melanoma was > 100 µM and 28.7 µM; with SK-MEL-5 melanoma it was 43.2 µM; with SW-620 colon it was more than 100 µM; with UACC-257 melanoma, more than 100 µM.
As for `CCN(Cc1ccc(F)cc1)c1ccc(CO)c(Cl)c1`, the GI50 in the test with CCRF-CEM leukemia was 15.9 µM; in the test with HCT-15 colon it was 5.15 µM; in the test with HL-60(TB) leukemia it was 3.63 µM; with M14 melanoma it was 12.5 µM; in the test on OVCAR-4 ovarian it was 0.298 µM; in the test with OVCAR-5 ovarian, 0.103 µM. Further, the GI50 is 2.03 µM with SK-MEL-2 melanoma, 1.86 µM with SK-MEL-5 melanoma, 0.838 µM with SW-620 colon and 0.0835 µM in the test with UACC-257 melanoma. The TGI with CCRF-CEM leukemia is 62.6 µM; in the test with HCT-15 colon, 50.7 µM; in the test with HL-60(TB) leukemia it was 23.3 µM; in the test on M14 melanoma it was more than 51.8 µM; in the test on OVCAR-4 ovarian it was 7.48 µM; in the test on OVCAR-5 ovarian, 0.525 µM. Moreover, the TGI is 13.9 µM with SK-MEL-2 melanoma, 15.2 µM in the test on SK-MEL-5 melanoma, more than 41 µM in the test with SW-620 colon and 0.285 µM in the test on UACC-257 melanoma.
For `COc1cc(N2CCC(N3CCN(C)CC3)CC2)ccc1Nc1ncc(Cl)c(Nc2ccccc2P(C)(C)=O)n1`, the GI50 with CCRF-CEM leukemia was 4.41 µM; with HCT-15 colon, 2.97 µM; in the test with HL-60(TB) leukemia, 1.67 µM; with M14 melanoma, 2.12 µM; in the test with OVCAR-4 ovarian, 1.3 µM; in the test with OVCAR-5 ovarian, 0.379 µM. In addition, the GI50 in the test with SK-MEL-2 melanoma was 2.67 µM; with SK-MEL-5 melanoma, 11.9 µM; with SW-620 colon, 1.71 µM; in the test on UACC-257 melanoma, 38.8 µM. The TGI with CCRF-CEM leukemia was 98 µM; with HCT-15 colon it was more than 40.4 µM; in the test with HL-60(TB) leukemia it was more than 35.6 µM; with M14 melanoma, more than 34 µM; with OVCAR-4 ovarian it was more than 47.6 µM; in the test with OVCAR-5 ovarian it was more than 100 µM. In addition, the TGI was 30.6 µM with SK-MEL-2 melanoma, more than 100 µM with SK-MEL-5 melanoma, 19.6 µM in the test with SW-620 colon and more than 100 µM in the test on UACC-257 melanoma.
In the case of `C=C(C)C(=O)NC(N)=NC#N`, the TGI is 59.9 µM and 60.5 µM with CCRF-CEM leukemia; 243 µM in the test on HCT-15 colon; 42.6 µM and 50.3 µM with HL-60(TB) leukemia; 47.8 µM and 131 µM in the test on M14 melanoma; 35.7 µM and 295 µM with OVCAR-4 ovarian; 304 µM in the test on OVCAR-5 ovarian. Besides, the TGI is 261 µM in the test on SK-MEL-2 melanoma; 310 µM in the test with SK-MEL-5 melanoma; 39.4 µM and 170 µM in the test on SW-620 colon; > 66.6 µM and 200 µM with UACC-257 melanoma. Moreover, the GI50 with HCT-15 colon is 103 µM; in the test with M14 melanoma, 21 µM; with OVCAR-4 ovarian, 140 µM; with SK-MEL-2 melanoma it was 134 µM; with SK-MEL-5 melanoma it was 171 µM; in the test with SW-620 colon, 41 µM. In the test on UACC-257 melanoma, the GI50 was 69.4 µM.
